# Results taken from ChEMBL document CHEMBL5678818, “Discovery of potent SOS1 inhibitors that block RAS activation via disruption of the RAS-SOS1 interaction” (Proc Natl Acad Sci U S A, 2019).
# Legend:
# [1] = target: Serine/threonine-protein kinase 33 (Homo sapiens) (UniProt Q9BYT3); test: Inhibition of STK33 (unknown origin) assessed as residual activity at 100 nM by KINOMEscan analysis relative to control
# [2] = target: T1, Dual specificity mitogen-activated protein kinase kinase 5 (Homo sapiens) (UniProt Q13163); test: Inhibition of MEK5 (unknown origin) assessed as residual activity at 100 nM by KINOMEscan analysis relative to control
# T1 sequence (whole entry): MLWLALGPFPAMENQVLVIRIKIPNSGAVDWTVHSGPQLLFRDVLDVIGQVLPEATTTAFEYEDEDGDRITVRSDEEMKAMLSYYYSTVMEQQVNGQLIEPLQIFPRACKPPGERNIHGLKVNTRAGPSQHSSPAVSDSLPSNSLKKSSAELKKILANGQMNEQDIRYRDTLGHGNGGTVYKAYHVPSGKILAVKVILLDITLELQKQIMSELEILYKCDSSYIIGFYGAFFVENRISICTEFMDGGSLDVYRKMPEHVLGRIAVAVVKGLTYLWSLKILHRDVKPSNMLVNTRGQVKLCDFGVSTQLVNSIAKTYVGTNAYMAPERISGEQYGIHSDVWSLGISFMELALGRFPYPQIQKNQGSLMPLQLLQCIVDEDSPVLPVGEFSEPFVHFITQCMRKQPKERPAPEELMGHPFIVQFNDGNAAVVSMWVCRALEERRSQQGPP
# [3] = target: T2, Serine/threonine-protein kinase STK11 (Homo sapiens) (UniProt Q15831); test: Inhibition of LKB1 (unknown origin) assessed as residual activity at 100 nM by KINOMEscan analysis relative to control
# T2 sequence (whole entry): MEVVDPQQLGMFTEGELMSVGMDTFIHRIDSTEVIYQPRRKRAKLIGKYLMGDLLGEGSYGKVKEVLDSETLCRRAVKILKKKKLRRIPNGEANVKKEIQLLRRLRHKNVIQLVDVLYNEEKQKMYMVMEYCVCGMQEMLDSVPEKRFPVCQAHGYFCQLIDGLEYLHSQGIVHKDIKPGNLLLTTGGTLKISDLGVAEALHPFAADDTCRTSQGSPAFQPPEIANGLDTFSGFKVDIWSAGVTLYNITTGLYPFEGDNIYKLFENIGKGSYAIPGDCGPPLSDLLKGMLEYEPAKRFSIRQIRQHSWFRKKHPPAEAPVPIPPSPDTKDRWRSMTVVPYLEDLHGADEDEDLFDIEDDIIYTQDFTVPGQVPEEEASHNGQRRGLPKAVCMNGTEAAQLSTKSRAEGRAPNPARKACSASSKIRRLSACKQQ
# [4] = system: Phosphatidylinositol 4,5-bisphosphate 3-kinase catalytic subunit alpha isoform (Homo sapiens), P42336 [H1047Y]; test: Inhibition of PIK3CA H1047Y mutant (unknown origin) assessed as residual activity at 100 nM by KINOMEscan analysis relative to control
# Chain of Phosphatidylinositol 4,5-bisphosphate 3-kinase catalytic subunit alpha isoform (Homo sapiens), P42336 [H1047Y] (P42336 whole entry H1047Y, canonical isoform): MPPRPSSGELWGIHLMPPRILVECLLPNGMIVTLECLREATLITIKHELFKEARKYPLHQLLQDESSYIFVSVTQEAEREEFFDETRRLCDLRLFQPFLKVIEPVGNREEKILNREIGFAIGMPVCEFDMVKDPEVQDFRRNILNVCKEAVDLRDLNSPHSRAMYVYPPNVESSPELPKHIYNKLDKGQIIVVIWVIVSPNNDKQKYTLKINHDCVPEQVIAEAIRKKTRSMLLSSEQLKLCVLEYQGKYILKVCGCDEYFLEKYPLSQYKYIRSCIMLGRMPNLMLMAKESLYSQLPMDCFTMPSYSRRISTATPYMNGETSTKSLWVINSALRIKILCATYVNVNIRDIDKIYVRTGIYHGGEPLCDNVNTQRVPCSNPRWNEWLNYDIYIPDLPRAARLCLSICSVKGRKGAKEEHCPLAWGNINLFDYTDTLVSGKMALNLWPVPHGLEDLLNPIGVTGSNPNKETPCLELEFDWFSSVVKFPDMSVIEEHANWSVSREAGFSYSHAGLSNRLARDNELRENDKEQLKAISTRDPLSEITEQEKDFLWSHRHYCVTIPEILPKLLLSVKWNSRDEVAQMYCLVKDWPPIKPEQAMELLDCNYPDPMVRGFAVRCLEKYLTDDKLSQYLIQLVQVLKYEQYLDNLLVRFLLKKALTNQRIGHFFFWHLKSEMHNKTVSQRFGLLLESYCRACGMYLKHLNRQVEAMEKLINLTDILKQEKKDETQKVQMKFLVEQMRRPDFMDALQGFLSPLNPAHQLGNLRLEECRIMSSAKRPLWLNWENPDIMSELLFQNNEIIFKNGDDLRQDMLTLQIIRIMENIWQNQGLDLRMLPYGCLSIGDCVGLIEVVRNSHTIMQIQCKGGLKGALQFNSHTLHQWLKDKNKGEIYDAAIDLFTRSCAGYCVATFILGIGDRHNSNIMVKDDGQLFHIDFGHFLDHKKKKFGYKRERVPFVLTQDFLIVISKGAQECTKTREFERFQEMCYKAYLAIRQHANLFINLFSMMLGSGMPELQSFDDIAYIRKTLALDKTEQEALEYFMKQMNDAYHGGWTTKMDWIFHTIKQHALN
# [5] = target: Serine/threonine-protein kinase MARK1 (Homo sapiens) (UniProt Q9P0L2); test: Inhibition of MARK1 (unknown origin) assessed as residual activity at 100 nM by KINOMEscan analysis relative to control
# Chain of Serine/threonine-protein kinase MARK1 (Homo sapiens) (Q9P0L2 whole entry, looked up): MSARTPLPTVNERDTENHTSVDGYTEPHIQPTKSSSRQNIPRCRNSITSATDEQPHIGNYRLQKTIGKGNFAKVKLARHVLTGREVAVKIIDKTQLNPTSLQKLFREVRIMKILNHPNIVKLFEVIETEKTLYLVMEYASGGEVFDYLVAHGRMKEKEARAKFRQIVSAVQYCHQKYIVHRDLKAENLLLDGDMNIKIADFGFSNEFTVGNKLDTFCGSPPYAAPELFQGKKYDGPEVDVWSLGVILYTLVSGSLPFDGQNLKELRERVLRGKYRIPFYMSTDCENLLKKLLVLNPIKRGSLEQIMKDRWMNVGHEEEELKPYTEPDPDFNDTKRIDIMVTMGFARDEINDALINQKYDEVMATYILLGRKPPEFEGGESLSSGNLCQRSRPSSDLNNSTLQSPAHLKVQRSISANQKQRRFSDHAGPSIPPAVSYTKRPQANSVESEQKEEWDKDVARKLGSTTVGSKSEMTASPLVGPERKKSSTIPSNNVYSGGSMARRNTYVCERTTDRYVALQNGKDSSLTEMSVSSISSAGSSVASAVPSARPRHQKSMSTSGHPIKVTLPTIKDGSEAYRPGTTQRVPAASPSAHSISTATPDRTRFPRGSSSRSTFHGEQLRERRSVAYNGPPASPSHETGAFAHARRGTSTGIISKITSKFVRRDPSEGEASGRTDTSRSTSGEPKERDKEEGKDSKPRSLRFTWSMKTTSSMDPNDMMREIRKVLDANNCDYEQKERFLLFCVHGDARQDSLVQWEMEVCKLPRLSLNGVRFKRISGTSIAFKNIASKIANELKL
# [6] = target: T3, Calcium/calmodulin-dependent protein kinase type IV (Homo sapiens) (UniProt Q16566); test: Inhibition of CAMK4 (unknown origin) assessed as residual activity at 100 nM by KINOMEscan analysis relative to control
# T3 sequence (whole entry): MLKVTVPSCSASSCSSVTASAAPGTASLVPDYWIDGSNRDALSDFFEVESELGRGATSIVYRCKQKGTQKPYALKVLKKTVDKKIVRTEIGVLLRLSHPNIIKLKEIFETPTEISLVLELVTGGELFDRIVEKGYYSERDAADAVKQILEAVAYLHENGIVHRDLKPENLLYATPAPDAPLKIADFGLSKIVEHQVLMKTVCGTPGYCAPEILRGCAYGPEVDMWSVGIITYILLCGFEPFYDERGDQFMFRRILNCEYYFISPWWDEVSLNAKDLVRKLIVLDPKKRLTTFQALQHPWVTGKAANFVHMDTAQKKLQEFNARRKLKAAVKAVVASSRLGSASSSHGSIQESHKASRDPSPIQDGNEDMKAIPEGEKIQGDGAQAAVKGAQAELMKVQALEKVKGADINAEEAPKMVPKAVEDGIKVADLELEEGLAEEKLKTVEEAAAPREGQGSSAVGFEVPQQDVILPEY
# [7] = target: Focal adhesion kinase 1 (Homo sapiens) (UniProt Q05397); test: Inhibition of FAK (unknown origin) assessed as residual activity at 100 nM by KINOMEscan analysis relative to control
# Chain of Focal adhesion kinase 1 (Homo sapiens) (Q05397 2-1052 limits assumed): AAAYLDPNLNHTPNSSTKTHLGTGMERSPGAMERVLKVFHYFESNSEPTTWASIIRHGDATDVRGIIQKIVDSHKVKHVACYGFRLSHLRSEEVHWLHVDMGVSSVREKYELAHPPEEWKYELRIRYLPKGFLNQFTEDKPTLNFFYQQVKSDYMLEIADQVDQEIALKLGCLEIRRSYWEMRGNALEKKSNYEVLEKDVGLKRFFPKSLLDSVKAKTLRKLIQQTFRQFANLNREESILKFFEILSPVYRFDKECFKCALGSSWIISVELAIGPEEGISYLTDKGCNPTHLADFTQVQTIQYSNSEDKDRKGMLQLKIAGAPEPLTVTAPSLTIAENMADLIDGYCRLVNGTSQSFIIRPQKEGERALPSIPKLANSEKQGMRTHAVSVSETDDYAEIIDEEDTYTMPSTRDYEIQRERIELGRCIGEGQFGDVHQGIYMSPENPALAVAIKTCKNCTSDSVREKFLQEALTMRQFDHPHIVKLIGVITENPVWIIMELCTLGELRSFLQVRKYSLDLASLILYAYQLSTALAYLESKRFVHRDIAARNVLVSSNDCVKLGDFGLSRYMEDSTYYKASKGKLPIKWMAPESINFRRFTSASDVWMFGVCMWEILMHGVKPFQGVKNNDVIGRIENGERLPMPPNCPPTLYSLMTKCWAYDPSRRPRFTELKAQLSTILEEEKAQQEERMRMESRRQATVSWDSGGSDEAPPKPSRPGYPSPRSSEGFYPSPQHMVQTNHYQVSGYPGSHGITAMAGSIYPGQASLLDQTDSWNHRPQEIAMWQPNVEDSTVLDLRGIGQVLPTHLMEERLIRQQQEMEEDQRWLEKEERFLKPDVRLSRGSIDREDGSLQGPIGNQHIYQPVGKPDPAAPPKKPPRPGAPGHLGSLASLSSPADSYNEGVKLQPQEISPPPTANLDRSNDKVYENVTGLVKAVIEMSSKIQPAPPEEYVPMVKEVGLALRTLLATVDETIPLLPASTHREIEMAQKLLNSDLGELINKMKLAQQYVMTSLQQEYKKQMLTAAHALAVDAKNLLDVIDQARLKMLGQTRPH
# [8] = target: T4, Aurora kinase A (Homo sapiens) (UniProt O14965); test: Inhibition of AURKA (unknown origin) assessed as residual activity at 100 nM by KINOMEscan analysis relative to control
# T4 sequence (whole entry): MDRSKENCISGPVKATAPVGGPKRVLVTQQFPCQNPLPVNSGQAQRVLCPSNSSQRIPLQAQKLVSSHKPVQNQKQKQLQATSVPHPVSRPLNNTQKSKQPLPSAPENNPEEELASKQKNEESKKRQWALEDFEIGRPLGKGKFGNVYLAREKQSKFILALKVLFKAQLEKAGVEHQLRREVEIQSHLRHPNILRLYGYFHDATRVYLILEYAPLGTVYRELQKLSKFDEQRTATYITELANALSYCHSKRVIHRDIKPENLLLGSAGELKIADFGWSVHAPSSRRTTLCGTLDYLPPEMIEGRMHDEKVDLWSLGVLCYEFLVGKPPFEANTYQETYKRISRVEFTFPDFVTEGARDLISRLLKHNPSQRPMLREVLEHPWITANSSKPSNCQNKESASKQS
# [9] = system: Receptor-type tyrosine-protein kinase FLT3 (Homo sapiens), P36888 [UNDEFINED MUTATION]; test: Inhibition of FLT3 ITD/F691L mutant (unknown origin) assessed as residual activity at 1000 nM by KINOMEscan analysis relative to control
# Chain of Receptor-type tyrosine-protein kinase FLT3 (Homo sapiens), P36888 [UNDEFINED MUTATION] (P36888 whole entry, looked up, stated change not applied): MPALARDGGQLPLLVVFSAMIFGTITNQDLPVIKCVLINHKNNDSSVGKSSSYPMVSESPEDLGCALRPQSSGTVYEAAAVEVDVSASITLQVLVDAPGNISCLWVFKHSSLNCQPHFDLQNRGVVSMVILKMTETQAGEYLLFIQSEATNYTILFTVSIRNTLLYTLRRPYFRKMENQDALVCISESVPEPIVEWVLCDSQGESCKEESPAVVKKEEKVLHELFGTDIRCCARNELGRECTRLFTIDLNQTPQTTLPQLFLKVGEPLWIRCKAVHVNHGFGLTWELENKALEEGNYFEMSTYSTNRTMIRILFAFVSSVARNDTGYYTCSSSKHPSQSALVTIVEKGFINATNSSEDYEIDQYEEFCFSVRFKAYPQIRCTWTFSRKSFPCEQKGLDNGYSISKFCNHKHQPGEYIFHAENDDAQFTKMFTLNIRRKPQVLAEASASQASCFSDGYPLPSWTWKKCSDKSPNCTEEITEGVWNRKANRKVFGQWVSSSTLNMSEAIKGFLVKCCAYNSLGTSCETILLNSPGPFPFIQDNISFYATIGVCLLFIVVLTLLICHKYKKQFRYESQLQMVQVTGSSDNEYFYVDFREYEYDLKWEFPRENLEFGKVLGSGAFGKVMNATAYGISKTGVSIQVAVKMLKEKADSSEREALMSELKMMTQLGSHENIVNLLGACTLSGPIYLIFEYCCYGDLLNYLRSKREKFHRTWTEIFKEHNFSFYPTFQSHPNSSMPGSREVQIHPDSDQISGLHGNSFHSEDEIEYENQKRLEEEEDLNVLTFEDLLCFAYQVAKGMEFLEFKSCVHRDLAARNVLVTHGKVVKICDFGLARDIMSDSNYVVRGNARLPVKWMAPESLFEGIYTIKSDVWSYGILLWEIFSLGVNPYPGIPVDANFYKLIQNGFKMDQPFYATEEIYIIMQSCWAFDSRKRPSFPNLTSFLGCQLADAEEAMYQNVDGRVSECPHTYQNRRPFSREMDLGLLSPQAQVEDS
# Chain of Serine/threonine-protein kinase 33 (Homo sapiens) (Q9BYT3 whole entry, looked up): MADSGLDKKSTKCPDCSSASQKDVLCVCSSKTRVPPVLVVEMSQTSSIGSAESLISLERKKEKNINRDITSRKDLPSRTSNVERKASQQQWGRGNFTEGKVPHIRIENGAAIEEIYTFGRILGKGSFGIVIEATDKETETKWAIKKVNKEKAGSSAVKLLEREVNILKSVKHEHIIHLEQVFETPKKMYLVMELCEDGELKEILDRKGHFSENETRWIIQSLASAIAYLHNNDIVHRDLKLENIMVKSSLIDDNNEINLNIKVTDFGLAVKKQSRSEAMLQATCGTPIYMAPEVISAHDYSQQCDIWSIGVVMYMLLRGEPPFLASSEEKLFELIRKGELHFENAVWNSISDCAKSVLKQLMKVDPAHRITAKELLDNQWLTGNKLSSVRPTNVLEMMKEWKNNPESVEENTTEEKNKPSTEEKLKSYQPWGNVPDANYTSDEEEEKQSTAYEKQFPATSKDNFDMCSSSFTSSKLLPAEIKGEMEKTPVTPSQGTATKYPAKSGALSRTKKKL
SMILES,Activity [1],Activity [2],Activity [3],Activity [4],Activity [5],Activity [6],Activity [7],Activity [8],Activity [9]
COc1cc2ncnc(N[C@H](C)c3cccc4ccccc34)c2cc1OC,70%,83%,100%,73%,100%,100%,100%,100%,
COc1cc2nc(C)nc(N[C@H](C)c3cccc(-c4cn[nH]c4)c3)c2cc1OC,,,,,,,,,86%
